Laboratory results reported in patent EP0598515A1, “Method for herbicidal activity-enhancing, activity-enhanced herbicidal composition and activity-enhancing composition” (ISHIHARA SANGYO KAISHA LTD., priority 1992, dated 1994).
“And” between values parts separate entries of the source, which are not always exact repeats. Identical values can stand only once.

Tested on: corn plants
Test: Test Example 13: field plot test, injury on corn
Type: in vivo
Settings: Example 8 suspension concentrate, 4 days after treatment, 0 for no injury to 5 for severe injure
Excerpt: In field plots of 4 m² (1 m × 4 m) unit arranged in a duplicate system, seeds of corn, crabgrass (Digitaria sanguinalis L.) common lambsquarters (Chenopodium album L.), slender amaranth (Amaranthus viridis L.), velvetleaf (Abutilon theophrasti MEDIC.) and common cocklebur (Xanthium strumarium L.) were sown and grown. Also, green foxtail (Setaria viridis L.) and barnyardgrass (Echinochloa crus-galli L.) were allowed to grow spontaneously. When the plants grew to certain stages (corn: 4.2 to 6.0-leaf stage, crabgrass: 3.2 to 5.0-leaf stage, common lambsquarters: 3.0 to 6.0-leaf stage, slender amaranth: 2.0 to 5.0-leaf stage, velvetleaf: 1.5 to 4.0-leaf stage, common cocklebur: cotyledonal to 3.5-leaf stage, green foxtail: 3.0 to 5.0-leaf stage and barnyardgrass: 3.0 to 5.0-leaf stage), the oil-based suspension concentrate obtained in Example 8 was diluted with 200 liters/hectare of water containing a predetermined amount of Frigate and was applied foliarly to the plants with a small spray gun.
On the other hand, 4 days after treatment, corn plants were examined for condition of injury (degree of discoloration and yellowing) with visual observation and the results are also shown in Table 13 (0 for no injury to 5 for severe injure).

Structure (SMILES): COc1cc(OC)nc(NC(=O)NS(=O)(=O)c2ncccc2C(=O)N(C)C)n1 [Compound A, N-[(4,6-dimethoxypyrimidin-2-yl)aminocarbonyl]-3-dimethylaminocarbonyl-2-pyridinesulfonamide]
- Injury on Corn (Frigate 0.1 % by volume, Compound A 30 g/ha): 1.0
- Injury on Corn (Frigate 0.1 % by volume, Compound A 40 g/ha): 1.0
- Injury on Corn (Frigate 0.2 % by volume, Compound A 20 g/ha): 1.0
- Injury on Corn (Frigate 0.2 % by volume, Compound A 30 g/ha): 1.0 and 1.5
- Injury on Corn (Frigate 0.2 % by volume, Compound A 40 g/ha): 1.5 and 2.0
- Injury on Corn (Frigate: No addition, Compound A 30 g/ha): 1.0
- Injury on Corn (Frigate: No addition, Compound A 40 g/ha): 1.0 and 1.5
- Injury on Corn (Frigate: No addition, Compound A 50 g/ha): 1.0
